{"source": "patent US6861044B2", "about": "“Radioiodinated sulfonated phenols and process therefore” (The Dow Chemical Company, priority 1998, dated 2005)", "key": {"[1]": {"experiment": "Rat biodistribution 1 hour after tail vein injection", "type": "in vivo, Sprague-Dawley rats", "details": "for Activity in the thyroid / Radioactivity in / cleared from the body: rats", "description": "(§1) The radioiodinated HBS (^131I-HBS) solution (100 μL), prepared in Example 3, was injected […] into a tail vein of three Sprague-Dawley rats (180-220 g). After one hour, the animals were sacrificed and the tissues and organs of interest were removed and weighed. The amount of radioactivity in each organ was determined by counting the tissue sample with a sodium iodide detector coupled to a multi-channel analyzer. The counts in the tissues were compared to the average counts of three 100 μL aliquots of ^131I-HBS counted in the same manner. The percentage of dose in the bone was calculated by assuming the femur to represent 1/25 the weight of the total skeletal system. The blood dose was calculated by assuming that blood comprises 6.5% of the total body weight. Muscle dose was calculated by assuming that muscle comprises 43% of the total body weight.\nThe biodistribution of the radioiodinated tyramine prepared in Example 6 was determined as in Example 4 (using 2 rats)."}, "[2]": {"biological_target": "T1, thyroxine-binding globulin (Homo sapiens, UniProt P05543)", "T1 sequence (P05543 21-415)": "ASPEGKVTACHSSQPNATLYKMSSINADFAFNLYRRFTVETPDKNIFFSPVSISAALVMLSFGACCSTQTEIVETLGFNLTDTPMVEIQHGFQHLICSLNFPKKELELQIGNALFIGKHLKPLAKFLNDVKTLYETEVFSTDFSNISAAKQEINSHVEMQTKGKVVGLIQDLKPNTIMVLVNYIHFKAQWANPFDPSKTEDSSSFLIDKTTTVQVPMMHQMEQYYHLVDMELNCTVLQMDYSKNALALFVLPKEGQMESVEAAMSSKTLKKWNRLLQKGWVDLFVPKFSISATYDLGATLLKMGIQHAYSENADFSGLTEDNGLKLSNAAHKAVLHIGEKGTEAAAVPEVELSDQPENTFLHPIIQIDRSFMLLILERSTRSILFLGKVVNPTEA", "details": "concentrations up to 0.2 mM; cited from earlier work"}, "albumin": {"biological_target": "albumin (Homo sapiens, UniProt P02768)", "sequence (P02768 25-609, species assumed)": "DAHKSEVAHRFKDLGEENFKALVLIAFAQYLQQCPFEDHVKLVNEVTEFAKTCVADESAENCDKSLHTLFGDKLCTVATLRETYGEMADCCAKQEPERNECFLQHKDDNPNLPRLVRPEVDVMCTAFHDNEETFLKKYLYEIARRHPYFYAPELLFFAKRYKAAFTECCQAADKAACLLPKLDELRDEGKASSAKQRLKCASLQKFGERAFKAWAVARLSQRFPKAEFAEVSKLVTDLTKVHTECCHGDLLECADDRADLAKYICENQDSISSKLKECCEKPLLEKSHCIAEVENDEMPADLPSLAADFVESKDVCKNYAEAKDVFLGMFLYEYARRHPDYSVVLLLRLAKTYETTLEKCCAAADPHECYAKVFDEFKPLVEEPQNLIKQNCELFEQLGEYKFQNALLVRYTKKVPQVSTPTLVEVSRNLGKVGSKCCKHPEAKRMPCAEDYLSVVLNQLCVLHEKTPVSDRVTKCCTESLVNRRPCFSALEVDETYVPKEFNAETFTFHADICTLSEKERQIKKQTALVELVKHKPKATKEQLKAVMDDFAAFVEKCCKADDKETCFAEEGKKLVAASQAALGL", "details": "concentrations up to 0.2 mM; cited from earlier work"}, "prealbumin": {"biological_target": "prealbumin (Homo sapiens, UniProt P02766)", "details": "concentrations up to 0.2 mM; cited from earlier work"}, "[3]": {"experiment": "Two hour rat biodistribution after intrathecal administration", "type": "in vivo, Sprague-Dawley rats", "description": "as §1\nAn I-HBS solution was prepared as in Example 3. Twenty μL of this solution was injected intrathecally in two Sprague-Dawley rats (100-150 g). After two hours the rats were sacrificed and dissected. The amount of radio activity in various organs and tissues was determined as in Example 4."}, "[4]": {"details": "1 hour post injection, tail vein"}, "[5]": {"details": "average of 2 rats, determined as in Example 4 (percent of dose, 1 hour post injection, tail vein)"}, "[6]": {"details": "individual rat, determined as in Example 4 (percent of dose, 1 hour post injection, tail vein)"}, "[7]": {"details": "average of two rats, two hours after intrathecal administration of 20 μL"}, "[8]": {"details": "two hours after intrathecal administration, rats"}, "[9]": {"details": "average of three rats, 1 Hour After Injection, tail vein"}, "[10]": {"details": "individual rat, 1 Hour After Injection, tail vein"}}, "note": "Values joined by “and” are separate entries in the source; they are usually repeats but may differ in a detail not shown here. Identical values can stand only once."}
{"smiles": "NCCc1ccc(O)c([131I])c1", "note": "[radioiodinated tyramine]", "values": [{"measurement": "Activity in the thyroid", "setting": "[1]; [4]", "value": "very little"}, {"measurement": "Radioactivity in / cleared from the body", "setting": "[1]; [4]", "value": "most radioactivity had cleared the body"}, {"measurement": "Biodistribution, Blood, Average", "setting": "[1]; [5]", "value": 1.13}, {"measurement": "Biodistribution, Bone, Average", "setting": "[1]; [5]", "value": 0.25}, {"measurement": "Biodistribution, Heart, Average", "setting": "[1]; [5]", "value": 0.03}, {"measurement": "Biodistribution, Kidney, Average", "setting": "[1]; [5]", "value": 0.26}, {"measurement": "Biodistribution, Lg. Int., Average", "setting": "[1]; [5]", "value": 1.24}, {"measurement": "Biodistribution, Liver, Average", "setting": "[1]; [5]", "value": 0.52}, {"measurement": "Biodistribution, Lung, Average", "setting": "[1]; [5]", "value": 0.15}, {"measurement": "Biodistribution, Muscle, Average", "setting": "[1]; [5]", "value": 1.09}, {"measurement": "Biodistribution, Sm. Int., Average", "setting": "[1]; [5]", "value": 4.07}, {"measurement": "Biodistribution, Spleen, Average", "setting": "[1]; [5]", "value": 0.01}, {"measurement": "Biodistribution, Stomach, Average", "setting": "[1]; [5]", "value": 0.43}, {"measurement": "Biodistribution, Tail, Average", "setting": "[1]; [5]", "value": 0.49}, {"measurement": "Biodistribution, Thyroid, Average", "setting": "[1]; [5]", "value": 0.09}, {"measurement": "Biodistribution, Blood", "setting": "[1]; [6]", "value": "1.19 and 1.06"}, {"measurement": "Biodistribution, Bone", "setting": "[1]; [6]", "value": "0.30 and 0.20"}, {"measurement": "Biodistribution, Heart", "setting": "[1]; [6]", "value": "0.03 and 0.02"}, {"measurement": "Biodistribution, Kidney", "setting": "[1]; [6]", "value": "0.26 and 0.25"}, {"measurement": "Biodistribution, Lg. Int.", "setting": "[1]; [6]", "value": "0.46 and 2.02"}, {"measurement": "Biodistribution, Liver", "setting": "[1]; [6]", "value": "0.46 and 0.57"}, {"measurement": "Biodistribution, Lung", "setting": "[1]; [6]", "value": "0.03 and 0.26"}, {"measurement": "Biodistribution, Muscle", "setting": "[1]; [6]", "value": "1.31 and 0.87"}, {"measurement": "Biodistribution, Sm. Int.", "setting": "[1]; [6]", "value": "3.47 and 4.67"}, {"measurement": "Biodistribution, Spleen", "setting": "[1]; [6]", "value": 0.01}, {"measurement": "Biodistribution, Stomach", "setting": "[1]; [6]", "value": "0.37 and 0.48"}, {"measurement": "Biodistribution, Tail", "setting": "[1]; [6]", "value": "0.77 and 0.20"}, {"measurement": "Biodistribution, Thyroid", "setting": "[1]; [6]", "value": "0.12 and 0.07"}]}
{"smiles": "O=S(=O)(O)c1cc(I)c(O)c(I)c1", "note": "[diiodophenolsulphonic acid, 3,5-diiodo-4-hydroxybenzenesulphonic acid]", "values": [{"measurement": "Displacement of triiodothyronine from thyroxine-binding globulin", "setting": "[2]", "value": "did not displace"}, {"measurement": "Displacement of triiodothyronine from albumin", "setting": "albumin", "value": "did not displace"}, {"measurement": "Displacement of thyroxine from prealbumin-binding sites", "setting": "prealbumin", "value": "did selectively display thyroxine"}]}
{"smiles": "O=S(=O)([O-])c1ccc(O)c([131I])c1.[Na+]", "note": "[^131I-HBS]", "values": [{"measurement": "% Injected Dose, Bladder", "setting": "[3]; [7]", "value": 0.3, "unit": "% Injected Dose"}, {"measurement": "% Injected Dose, Blood", "setting": "[3]; [7]", "value": 0.7, "unit": "% Injected Dose"}, {"measurement": "% Injected Dose, Bone", "setting": "[3]; [7]", "value": 1.3, "unit": "% Injected Dose"}, {"measurement": "% Injected Dose, Brain", "setting": "[3]; [7]", "value": 1.6, "unit": "% Injected Dose"}, {"measurement": "% Injected Dose, Caecum", "setting": "[3]; [7]", "value": 0.0, "unit": "% Injected Dose"}, {"measurement": "% Injected Dose, Colon", "setting": "[3]; [7]", "value": 0.9, "unit": "% Injected Dose"}, {"measurement": "% Injected Dose, Heart", "setting": "[3]; [7]", "value": 0.0, "unit": "% Injected Dose"}, {"measurement": "% Injected Dose, Kidney", "setting": "[3]; [7]", "value": 0.3, "unit": "% Injected Dose"}, {"measurement": "% Injected Dose, Liver", "setting": "[3]; [7]", "value": 0.2, "unit": "% Injected Dose"}, {"measurement": "% Injected Dose, Lung", "setting": "[3]; [7]", "value": 0.0, "unit": "% Injected Dose"}, {"measurement": "% Injected Dose, Muscle", "setting": "[3]; [7]", "value": 0.5, "unit": "% Injected Dose"}, {"measurement": "% Injected Dose, Sm. Intestine", "setting": "[3]; [7]", "value": 0.5, "unit": "% Injected Dose"}, {"measurement": "% Injected Dose, Spleen", "setting": "[3]; [7]", "value": 0.0, "unit": "% Injected Dose"}, {"measurement": "% Injected Dose, Stomach", "setting": "[3]; [7]", "value": 0.3, "unit": "% Injected Dose"}, {"measurement": "% Injected Dose, Thyroid", "setting": "[3]; [7]", "value": 0.0, "unit": "% Injected Dose"}, {"measurement": "% Injected Dose, Urine", "setting": "[3]; average of two rats, two hours after intrathecal administration of 20 μL, recovery of urine may have been less than quantitative", "value": 88, "unit": "% Injected Dose"}, {"measurement": "Clearance of radioactivity through the kidney", "setting": "[3]; [8]", "value": "had cleared the kidney"}, {"measurement": "Radioactivity present in the thyroid", "setting": "[3]; [8]", "value": "little or no radioactivity"}, {"measurement": "Activity in the urine", "setting": "[1]; 1 hour post injection, all animals", "value": "Almost all the activity"}, {"measurement": "Activity in the thyroid", "setting": "[1]; [4]", "value": "lack of activity"}, {"measurement": "Radioactivity in / cleared from the body", "setting": "[1]; [4]", "value": "very little activity"}, {"measurement": "Percent Injected Dose, Heart, Average", "setting": "[1]; [9]", "value": 0.01, "unit": "Percent Injected Dose"}, {"measurement": "Percent Injected Dose, Kidney, Average", "setting": "[1]; [9]", "value": 0.12, "unit": "Percent Injected Dose"}, {"measurement": "Percent Injected Dose, Lg. Int., Average", "setting": "[1]; [9]", "value": 0.08, "unit": "Percent Injected Dose"}, {"measurement": "Percent Injected Dose, Liver, Average", "setting": "[1]; [9]", "value": 0.06, "unit": "Percent Injected Dose"}, {"measurement": "Percent Injected Dose, Lung, Average", "setting": "[1]; [9]", "value": 0.02, "unit": "Percent Injected Dose"}, {"measurement": "Percent Injected Dose, Sm Int., Average", "setting": "[1]; [9]", "value": 1.10, "unit": "Percent Injected Dose"}, {"measurement": "Percent Injected Dose, Spleen, Average", "setting": "[1]; [9]", "value": 0.00, "unit": "Percent Injected Dose"}, {"measurement": "Percent Injected Dose, Stomach, Average", "setting": "[1]; [9]", "value": 0.29, "unit": "Percent Injected Dose"}, {"measurement": "Percent Injected Dose, Tail, Average", "setting": "[1]; [9]", "value": 0.08, "unit": "Percent Injected Dose"}, {"measurement": "Percent Injected Dose, Thyroid, Average", "setting": "[1]; [9]", "value": 0.00, "unit": "Percent Injected Dose"}, {"measurement": "Percent Injected Dose, Blood, Average", "setting": "[1]; average of three rats, 1 Hour After Injection, tail vein, blood taken as 6.5% of body weight", "value": 0.16, "unit": "Percent Injected Dose"}, {"measurement": "Percent Injected Dose, Bone, Average", "setting": "[1]; average of three rats, 1 Hour After Injection, tail vein, femur taken as 1/25 of skeleton", "value": 1.00, "unit": "Percent Injected Dose"}, {"measurement": "Percent Injected Dose, Muscle, Average", "setting": "[1]; average of three rats, 1 Hour After Injection, tail vein, muscle taken as 43% of body weight", "value": 0.40, "unit": "Percent Injected Dose"}, {"measurement": "Percent Injected Dose, Heart", "setting": "[1]; [10]", "value": "0.01 Percent Injected Dose (2×) and 0.02 Percent Injected Dose"}, {"measurement": "Percent Injected Dose, Kidney", "setting": "[1]; [10]", "value": "0.19 Percent Injected Dose and 0.10 Percent Injected Dose and 0.08 Percent Injected Dose"}, {"measurement": "Percent Injected Dose, Lg. Int.", "setting": "[1]; [10]", "value": "0.08 Percent Injected Dose and 0.12 Percent Injected Dose and 0.05 Percent Injected Dose"}, {"measurement": "Percent Injected Dose, Liver", "setting": "[1]; [10]", "value": "0.05 Percent Injected Dose and 0.08 Percent Injected Dose and 0.06 Percent Injected Dose"}, {"measurement": "Percent Injected Dose, Lung", "setting": "[1]; [10]", "value": "0.01 Percent Injected Dose and 0.03 Percent Injected Dose and 0.02 Percent Injected Dose"}, {"measurement": "Percent Injected Dose, Sm Int.", "setting": "[1]; [10]", "value": "1.51 Percent Injected Dose and 0.67 Percent Injected Dose and 1.24 Percent Injected Dose"}, {"measurement": "Percent Injected Dose, Spleen", "setting": "[1]; [10]", "value": "0.01 Percent Injected Dose (2×) and 0.00 Percent Injected Dose"}, {"measurement": "Percent Injected Dose, Stomach", "setting": "[1]; [10]", "value": "0.33 Percent Injected Dose and 0.31 Percent Injected Dose and 0.24 Percent Injected Dose"}, {"measurement": "Percent Injected Dose, Tail", "setting": "[1]; [10]", "value": "0.01 Percent Injected Dose and 0.16 Percent Injected Dose and 0.09 Percent Injected Dose"}, {"measurement": "Percent Injected Dose, Thyroid", "setting": "[1]; [10]", "value": 0.00, "unit": "Percent Injected Dose"}, {"measurement": "Percent Injected Dose, Blood", "setting": "[1]; individual rat, 1 Hour After Injection, tail vein, blood taken as 6.5% of body weight", "value": "0.14 Percent Injected Dose and 0.18 Percent Injected Dose and 0.15 Percent Injected Dose"}, {"measurement": "Percent Injected Dose, Bone", "setting": "[1]; individual rat, 1 Hour After Injection, tail vein, femur taken as 1/25 of skeleton", "value": "0.37 Percent Injected Dose and 0.16 Percent Injected Dose"}, {"measurement": "Percent Injected Dose, Muscle", "setting": "[1]; individual rat, 1 Hour After Injection, tail vein, muscle taken as 43% of body weight", "value": "0.88 Percent Injected Dose and 0.38 Percent Injected Dose and 0.05 Percent Injected Dose"}]}
